Measured values: US6610304B1, “Liposomes containing multiple branch peptide constructions for use against human immunodeficiency virus” (priority 1997, dated 2003)

What was measured:
[1] = Toxicity, intravenous injection into mice; type: in vivo; conditions: 50 mg/kg of SPC3, immediately, after 12 or 24 hours
Procedure: To determine toxicity, the 250 nm dialysed liposomes containing SPC3 were injected intravenously into 8 mice at a dose of 50 mg/kg of SPC3.

HIV-1 Hx10clone = experiment: Infection assay: inhibition of cell infection (cell-free p24 by ELISA); type: cell-based; conditions: C8166 cells, supernatant ELISA, no unit or concentration given
Procedure: C8166 cells were washed once in RPMI medium and then infected with HIV-1 Hx10clone by incubation at 37° C. for 2 hours in the presence of test substances (SPC3, SPC RL, empty liposomes of 110 nm and 250 nm average size, and dialysed and non-dialysed liposomes of those sizes containing SPC3) and in the absence of any test substance (control). After incubation, the virus was removed and the cells were incubated with fresh medium at 37° C. in the presence of the test substances or in the absence of any test substance (control). Infections and cell cultures were in 96-well culture plates. The production of HIV was monitored by measuring the concentration of cell-free p24 in the supernatant by ELISA, as described by Gluschankof et al., 1997, using the AMPAK amplification kit (DAKO. Trappes, France). The results are shown in Table 2 below, and the day 4 results are also shown graphically in the accompanying drawing.

HIV-1 Hx10 clone = experiment: Fusion assay: inhibition of syncytium formation; type: cell-based; conditions: concentration 10^−6 M, C8166 cells
Procedure: C8166 cells were incubated at 37° C. with HIV-1 Hx10 clone (B. Hahn, University of Alabama, USA) in the presence of test substances (SPC3, SPC RL, empty liposomes of 110 nm and 250 nm average size, and dialysed and non-dialysed liposomes of those sizes containing SPC3) and in the absence of any test substance (control). The samples were inspected by phase contrast microscopy and syncytia were scored after 48 and 72 hours of incubation in 96-well flat-bottomed cultured plates. Experiments were performed three times in duplicate and identical results were obtained. The presence of syncytia is indicated by + signs. allocated as follows: […]

Molecule	symptoms of toxicity [1]	p24 production (HIV-1 Hx10clone; Day 3 post-infection)	p24 production (HIV-1 Hx10clone; Day 4 post-infection)	Syncitia Formation (HIV-1 Hx10 clone; Day 2 post-infection)	Syncitia Formation (HIV-1 Hx10 clone; Day 3 post-infection)
C[C@H](NC(=O)[C@H](CCCNC(=N)N)NC(=O)CNC(=O)[C@@H]1CCCN1C(=O)CN)C(=O)N[C@@H](Cc1ccccc1)C(=O)NCCCC[C@H](NC(=O)[C@H](Cc1ccccc1)NC(=O)[C@H](C)NC(=O)[C@H](CCCNC(=N)N)NC(=O)CNC(=O)[C@@H]1CCCN1C(=O)CN)C(=O)NCCCC[C@H](NC(=O)[C@H](CCCCNC(=O)[C@H](Cc1ccccc1)NC(=O)[C@H](C)NC(=O)[C@H](CCCNC(=N)N)NC(=O)CNC(=O)[C@@H]1CCCN1C(=O)CN)NC(=O)[C@H](Cc1ccccc1)NC(=O)[C@H](C)NC(=O)[C@H](CCCNC(=N)N)NC(=O)CNC(=O)[C@@H]1CCCN1C(=O)CN)C(=O)NCCCC[C@H](NC(=O)[C@H](CCCCNC(=O)[C@H](CCCCNC(=O)[C@H](Cc1ccccc1)NC(=O)[C@H](C)NC(=O)[C@H](CCCNC(=N)N)NC(=O)CNC(=O)[C@@H]1CCCN1C(=O)CN)NC(=O)[C@H](Cc1ccccc1)NC(=O)[C@H](C)NC(=O)[C@H](CCCNC(=N)N)NC(=O)CNC(=O)[C@@H]1CCCN1C(=O)CN)NC(=O)[C@H](CCCCNC(=O)[C@H](Cc1ccccc1)NC(=O)[C@H](C)NC(=O)[C@H](CCCNC(=N)N)NC(=O)CNC(=O)[C@@H]1CCCN1C(=O)CN)NC(=O)[C@H](Cc1ccccc1)NC(=O)[C@H](C)NC(=O)[C@H](CCCNC(=N)N)NC(=O)CNC(=O)[C@@H]1CCCN1C(=O)CN)C(=O)NCCC(=O)O [SPC3, (GPGRAF)8-(K)4-(K)2-K-βA-OH]	symptoms of toxicity were observed	–	–	–	–
(RQGYSPL)8-(K)4-(K)2-K-βA-OH [SPC RL]	–	0.441	0.463	+/− (+/−=>95 % decrease)	+/− (+/−=>95 % decrease)
